Reference: the supplement of paper PMC10307832

Experiments:
Experiment in all cases: relative viability (nuclei count vs DMSO), 5 days (fraction); higher = more cells survive
17-AAG + Dasatinib = compound: C=CCNC1=C2C[C@@H](C)C[C@H](OC)[C@H](O)[C@@H](C)/C=C(\C)[C@H](OC(N)=O)[C@@H](OC)/C=C\C=C(/C)C(=O)NC(=CC1=O)C2=O [17-AAG] + Cc1nc(Nc2ncc(C(=O)Nc3c(C)cccc3Cl)s2)cc(N2CCN(CCO)CC2)n1 [Dasatinib] (partner 0.075 µM)
In short: (§1)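 Nuclei were stained with Hoechst during a one-step fixation (final 0.05% Triton X-100, 1% formaldehyde, 1 ug/ml Hoechst) carried out 5 days after dosing, then counted on 4× images. The cells, lung cancer lines in 1536-well plates, had been dosed by pin tool the day after seeding with one drug alone or a fixed anchor-drug dose plus five library-drug doses (not always all listed) in √10 steps. Relative viability is the nuclei count in treated wells divided by that in vehicle wells, and each value is the median of duplicate plates.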

17-AAG + Pemetrexed = compound: C=CCNC1=C2C[C@@H](C)C[C@H](OC)[C@H](O)[C@@H](C)/C=C(\C)[C@H](OC(N)=O)[C@@H](OC)/C=C\C=C(/C)C(=O)NC(=CC1=O)C2=O [17-AAG] + Nc1nc2[nH]cc(CCc3ccc(C(=O)N[C@@H](CCC(=O)O)C(=O)O)cc3)c2c(=O)[nH]1 [Pemetrexed] (partner 0.2 µM)
In short: as §1

17-AAG + Crizotinib = compound: C=CCNC1=C2C[C@@H](C)C[C@H](OC)[C@H](O)[C@@H](C)/C=C(\C)[C@H](OC(N)=O)[C@@H](OC)/C=C\C=C(/C)C(=O)NC(=CC1=O)C2=O [17-AAG] + C[C@@H](Oc1cc(-c2cnn(C3CCNCC3)c2)cnc1N)c1c(Cl)ccc(F)c1Cl [Crizotinib] (partner 1 µM)
In short: as §1

17-AAG + Lapatinib = compound: C=CCNC1=C2C[C@@H](C)C[C@H](OC)[C@H](O)[C@@H](C)/C=C(\C)[C@H](OC(N)=O)[C@@H](OC)/C=C\C=C(/C)C(=O)NC(=CC1=O)C2=O [17-AAG] + CS(=O)(=O)CCNCc1ccc(-c2ccc3ncnc(Nc4ccc(OCc5cccc(F)c5)c(Cl)c4)c3c2)o1 [Lapatinib] (partner 2 µM)
In short: as §1

Cell Line: A-427
- relative viability (17-AAG + Dasatinib; first compound 0.00128 µM): 0.698
- relative viability (17-AAG + Dasatinib; first compound 0.004048 µM): 0.709
- relative viability (17-AAG + Dasatinib; first compound 0.0128 µM): 0.692
- relative viability (17-AAG + Dasatinib; first compound 0.04048 µM): 0.538
- relative viability (17-AAG + Dasatinib; first compound 0.128 µM): 0.156
- relative viability (17-AAG + Pemetrexed; first compound 0.00128 µM): 0.974
- relative viability (17-AAG + Pemetrexed; first compound 0.004048 µM): 0.961
- relative viability (17-AAG + Pemetrexed; first compound 0.0128 µM): 0.97
- relative viability (17-AAG + Pemetrexed; first compound 0.04048 µM): 0.321
- relative viability (17-AAG + Pemetrexed; first compound 0.128 µM): 0.265
- relative viability (17-AAG + Crizotinib; first compound 0.00128 µM): 1.03
- relative viability (17-AAG + Crizotinib; first compound 0.004048 µM): 0.872
- relative viability (17-AAG + Crizotinib; first compound 0.0128 µM): 0.899
- relative viability (17-AAG + Crizotinib; first compound 0.04048 µM): 0.881
- relative viability (17-AAG + Crizotinib; first compound 0.128 µM): 0.798
- relative viability (17-AAG + Lapatinib; first compound 0.00128 µM): 1.04
- relative viability (17-AAG + Lapatinib; first compound 0.004048 µM): 1.12
- relative viability (17-AAG + Lapatinib; first compound 0.0128 µM): 1.05
- relative viability (17-AAG + Lapatinib; first compound 0.04048 µM): 1.12
- relative viability (17-AAG + Lapatinib; first compound 0.128 µM): 0.607

Cell Line: COR-L 105
- relative viability (17-AAG + Dasatinib; first compound 0.00128 µM): 0.388
- relative viability (17-AAG + Dasatinib; first compound 0.004048 µM): 0.306
- relative viability (17-AAG + Dasatinib; first compound 0.0128 µM): 0.356
- relative viability (17-AAG + Dasatinib; first compound 0.04048 µM): 0.202
- relative viability (17-AAG + Dasatinib; first compound 0.128 µM): 0.263
- relative viability (17-AAG + Pemetrexed; first compound 0.00128 µM): 1.17
- relative viability (17-AAG + Pemetrexed; first compound 0.004048 µM): 1.32
- relative viability (17-AAG + Pemetrexed; first compound 0.0128 µM): 1.02
- relative viability (17-AAG + Pemetrexed; first compound 0.04048 µM): 0.968
- relative viability (17-AAG + Pemetrexed; first compound 0.128 µM): 0.687
- relative viability (17-AAG + Crizotinib; first compound 0.00128 µM): 0.961
- relative viability (17-AAG + Crizotinib; first compound 0.004048 µM): 0.9
- relative viability (17-AAG + Crizotinib; first compound 0.0128 µM): 0.793
- relative viability (17-AAG + Crizotinib; first compound 0.04048 µM): 0.568
- relative viability (17-AAG + Crizotinib; first compound 0.128 µM): 0.661
- relative viability (17-AAG + Lapatinib; first compound 0.00128 µM): 0.352
- relative viability (17-AAG + Lapatinib; first compound 0.004048 µM): 0.333
- relative viability (17-AAG + Lapatinib; first compound 0.0128 µM): 0.344
- relative viability (17-AAG + Lapatinib; first compound 0.04048 µM): 0.406
- relative viability (17-AAG + Lapatinib; first compound 0.128 µM): 0.306

Cell Line: NCI-H460
- relative viability (17-AAG + Dasatinib; first compound 0.00128 µM): 0.518
- relative viability (17-AAG + Dasatinib; first compound 0.004048 µM): 0.462
- relative viability (17-AAG + Dasatinib; first compound 0.0128 µM): 0.0434
- relative viability (17-AAG + Dasatinib; first compound 0.04048 µM): 0.0267
- relative viability (17-AAG + Dasatinib; first compound 0.128 µM): 0.019
- relative viability (17-AAG + Pemetrexed; first compound 0.00128 µM): 0.0582
- relative viability (17-AAG + Pemetrexed; first compound 0.004048 µM): 0.0712
- relative viability (17-AAG + Pemetrexed; first compound 0.0128 µM): 0.0849
- relative viability (17-AAG + Pemetrexed; first compound 0.04048 µM): 0.0247
- relative viability (17-AAG + Pemetrexed; first compound 0.128 µM): 0.0362
- relative viability (17-AAG + Crizotinib; first compound 0.00128 µM): 0.685
- relative viability (17-AAG + Crizotinib; first compound 0.004048 µM): 0.521
- relative viability (17-AAG + Crizotinib; first compound 0.0128 µM): 0.0433
- relative viability (17-AAG + Crizotinib; first compound 0.04048 µM): 0.0161
- relative viability (17-AAG + Crizotinib; first compound 0.128 µM): 0.013
- relative viability (17-AAG + Lapatinib; first compound 0.00128 µM): 0.962
- relative viability (17-AAG + Lapatinib; first compound 0.004048 µM): 0.451
- relative viability (17-AAG + Lapatinib; first compound 0.0128 µM): 0.016
- relative viability (17-AAG + Lapatinib; first compound 0.04048 µM): 0.0135
- relative viability (17-AAG + Lapatinib; first compound 0.128 µM): 0.0137

Cell Line: NCI-H2126
- relative viability (17-AAG + Dasatinib; first compound 0.00128 µM): 0.596
- relative viability (17-AAG + Dasatinib; first compound 0.004048 µM): 0.515
- relative viability (17-AAG + Dasatinib; first compound 0.0128 µM): 0.202
- relative viability (17-AAG + Dasatinib; first compound 0.04048 µM): 0.22
- relative viability (17-AAG + Dasatinib; first compound 0.128 µM): 0.243
- relative viability (17-AAG + Pemetrexed; first compound 0.00128 µM): 0.689
- relative viability (17-AAG + Pemetrexed; first compound 0.004048 µM): 0.749
- relative viability (17-AAG + Pemetrexed; first compound 0.0128 µM): 0.746
- relative viability (17-AAG + Pemetrexed; first compound 0.04048 µM): 0.257
- relative viability (17-AAG + Pemetrexed; first compound 0.128 µM): 0.258
- relative viability (17-AAG + Crizotinib; first compound 0.00128 µM): 1.08
- relative viability (17-AAG + Crizotinib; first compound 0.004048 µM): 1.02
- relative viability (17-AAG + Crizotinib; first compound 0.0128 µM): 1.01
- relative viability (17-AAG + Crizotinib; first compound 0.04048 µM): 0.951
- relative viability (17-AAG + Crizotinib; first compound 0.128 µM): 0.43
- relative viability (17-AAG + Lapatinib; first compound 0.00128 µM): 0.731
- relative viability (17-AAG + Lapatinib; first compound 0.004048 µM): 0.784
- relative viability (17-AAG + Lapatinib; first compound 0.0128 µM): 0.775
- relative viability (17-AAG + Lapatinib; first compound 0.04048 µM): 0.53
- relative viability (17-AAG + Lapatinib; first compound 0.128 µM): 0.276
